Laboratory results: PMC11191095, “QSAR Reveals Decreased Lipophilicity of Polar Residues Determines the Selectivity of Antimicrobial Peptide Activity” (ACS Omega, 2024)
Where a SMILES comes first, the peptide text is derived from it.

How the values were obtained:
Assay in all cases: microbe, parasite or virus in culture
[1] = system: A. baumannii ATCC 17978; type: cell-based, Acinetobacter baumannii; conditions: A. baumannii ATCC 17978 (S); shown in µM
Outline: (§1)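 Peptides 128→2 μg/mL, 2-fold series; inoculum ~5 × 10^5 CFU/mL from overnight culture (OD600 0.01, mixed 1:1). MHB non-cation-adjusted for bacteria, RPMI 1640 + 2% glucose for fungi. 37 °C, 20 h, OD600. MIC50/MIC90 at 50%/90% inhibition; n ≥ 3.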

[2] = system: A. baumannii AYE; type: cell-based, Acinetobacter baumannii; conditions: A. baumannii AYE (R); shown in µM
Outline: as §1

[3] = system: E. coli NCTC 12923; type: cell-based, Escherichia coli; conditions: E. coli NCTC 12923 (S); shown in µM
Outline: as §1

[4] = system: E. coli LEC001; type: cell-based, Escherichia coli; conditions: E. coli LEC001 (R); shown in µM
Outline: as §1

[5] = system: K. pneumoniae NCTC 13368; type: cell-based, Klebsiella pneumoniae; conditions: K. pneumoniae NCTC 13368 (R)
Description: (§2) Antimicrobial activity was evaluated against a panel of 18 pathogens consisting of eight Gram-negative strains (E. coli NCTC 12923, E. coli LEC001, Pseudomonas aeruginosa PAO1, P. aeruginosa NCTC 13437, Acinetobacter baumannii ATCC 17978, A. baumannii AYE, Klebsiella pneumoniae M6, K. pneumoniae NCTC 13368), four Gram-positive strains (Staphylococcus aureus ATCC 9144, S. aureus NCTC 13616, S. aureus USA300, S. aureus 1199B) and six fungi (Candida auris TDG 1912, C. albicans NCPF 8018, C. krusei NCPF 3876, C. tropicalis NCPF 8760, and C. parapsilosis NCPF 3209). Pathogens were grown in noncation adjusted Mueller Hinton broth (MHB, for bacteria) or Roswell Park Memorial Institute (RPMI 1640) + 2% glucose (for fungi) at 37 °C with 180 rpm shaking and maintained on solid media (tryptic soy agar for bacteria and Sabouraud dextrose agar for fungi). For an antibiogram, see Suppl.
(§3) The 46 peptides were serially diluted (128 to 2 μg/mL) in media down polypropylene 96-well plates. Bacteria or fungi, diluted from an overnight culture to an OD600 of 0.01, were added to the serially diluted peptides at a 1:1 ratio resulting in a starting cell density of ∼5 × 10^5 CFU/mL. Plates were incubated at 37 °C for 20 h, and the optical density was determined spectrophotometrically at 600 nm. Minimum inhibition concentrations (MICs) were determined from a minimum of three biological repeats and are reported in μg/mL as well as μM. […] The MIC50 or MIC90 is defined as the lowest peptide concentration that results in 50% or 90% growth inhibition over a 20 h treatment period, respectively.

[6] = system: K. pneumoniae M6; type: cell-based, Klebsiella pneumoniae; conditions: K. pneumoniae M6 (S)
Description: as §2, §3

[7] = system: C. krusei NCPF 3876; type: cell-based; conditions: C. krusei NCPF 3876
Outline: as §1

[8] = system: C. tropicalis NCPF 8760; type: cell-based; conditions: C. tropicalis NCPF 8760
Outline: as §1

[9] = system: C. albicans NCPF 3281; type: cell-based; conditions: C. albicans NCPF 3281
Outline: as §1

[10] = system: C. parapsilosis NCPF 3209; type: cell-based; conditions: C. parapsilosis NCPF 3209
Outline: as §1

[11] = system: C. glabrata NCPF 8018; type: cell-based; conditions: C. glabrata NCPF 8018
Outline: as §1

[12] = system: C. auris TDG 1912; type: cell-based, Candida auris; conditions: C. auris TDG 1912
Outline: as §1

[13] = system: S. aureus (MSSA) ATCC 9144; type: cell-based, Staphylococcus aureus; conditions: S. aureus (MSSA) ATCC 9144 (S); shown in µM
Outline: as §1

[14] = system: S. aureus (MRSA) 1199B; type: cell-based, Staphylococcus aureus; conditions: S. aureus (MRSA) 1199B (R)
Outline: as §1

[15] = system: S. aureus (MRSA) USA300; type: cell-based, Staphylococcus aureus; conditions: S. aureus (MRSA) USA300 (R)
Outline: as §1

[16] = system: S. aureus (MRSA) NCTC 13616; type: cell-based, Staphylococcus aureus; conditions: S. aureus (MRSA) NCTC 13616 (R)
Outline: as §1

[17] = system: P. aeruginosa NCTC 13437; type: cell-based, Pseudomonas aeruginosa; conditions: P. aeruginosa NCTC 13437 (R)
Description: as §2, §3

[18] = system: P. aeruginosa PAO1; type: cell-based, Pseudomonas aeruginosa; conditions: P. aeruginosa PAO1 (S)
Description: as §2, §3

[19] = MHB, 37 °C, 20 h, OD600, min. three biological repeats
[20] = 50% growth inhibition, RPMI 1640 + 2% glucose, 37 °C, 20 h
[21] = 90% growth inhibition, RPMI 1640 + 2% glucose, 37 °C, 20 h
[22] = 50% growth inhibition, RPMI 1640 + 2% glucose, 37 °C, 20 h, OD600
[23] = 90% growth inhibition, RPMI 1640 + 2% glucose, 37 °C, 20 h, OD600

Structure (SMILES): CC(C)C[C@H](NC(=O)[C@H](CCCCN)NC(=O)[C@H](CCCCN)NC(=O)[C@H](C)NC(=O)[C@H](CC(C)C)NC(=O)[C@H](CCCCN)NC(=O)[C@H](CO)NC(=O)[C@H](CCCCN)NC(=O)[C@H](Cc1c[nH]c2ccccc12)NC(=O)[C@H](C)NC(=O)[C@H](CCCCN)NC(=O)[C@H](CCCCN)NC(=O)[C@H](CC(C)C)NC(=O)[C@H](Cc1ccccc1)NC(=O)[C@H](CO)NC(=O)CN)C(N)=O [PS-PB-16a] (H-GSFLKKAWKSKLAKKL-NH2)
- Modal MIC [1]: 8.5 µM
- Modal MIC [2]: 17 µM
- Modal MIC [3]: 8.5 µM
- Modal MIC [4]: 33.9 µM
- Modal MIC [5, 19]: > 128 µg/mL
- Modal MIC ([5]; shown in µM): > 67.8 µM
- Modal MIC [6, 19]: > 128 µg/mL
- Modal MIC ([6]; shown in µM): > 67.8 µM
- Modal MIC50 [7, 20]: > 128 µg/mL
- Modal MIC90 [7, 21]: > 128 µg/mL
- Modal MIC50 ([7]; shown in µM): > 67.8 µM
- Modal MIC90 ([7]; shown in µM): > 67.8 µM
- Modal MIC50 [8, 20]: > 128 µg/mL
- Modal MIC90 [8, 21]: > 128 µg/mL
- Modal MIC50 ([8]; shown in µM): > 67.8 µM
- Modal MIC90 ([8]; shown in µM): > 67.8 µM
- Modal MIC50 [9, 20]: > 128 µg/mL
- Modal MIC90 [9, 21]: > 128 µg/mL
- Modal MIC50 ([9]; shown in µM): > 67.8 µM
- Modal MIC90 ([9]; shown in µM): > 67.8 µM
- Modal MIC50 [10, 20]: > 128 µg/mL
- Modal MIC90 [10, 21]: > 128 µg/mL
- Modal MIC50 ([10]; shown in µM): > 67.8 µM
- Modal MIC90 ([10]; shown in µM): > 67.8 µM
- Modal MIC50 [11, 20]: > 128 µg/mL
- Modal MIC90 [11, 21]: > 128 µg/mL
- Modal MIC50 ([11]; shown in µM): > 67.8 µM
- Modal MIC90 ([11]; shown in µM): > 67.8 µM
- Modal MIC50 [12, 22]: > 128 µg/mL
- Modal MIC90 [12, 23]: > 128 µg/mL
- Modal MIC50 ([12]; shown in µM): > 67.8 µM
- Modal MIC90 ([12]; shown in µM): > 67.8 µM
- Modal MIC [13]: 17 µM
- Modal MIC [14, 19]: > 128 µg/mL
- Modal MIC ([14]; shown in µM): > 67.8 µM
- Modal MIC [15, 19]: > 128 µg/mL
- Modal MIC ([15]; shown in µM): > 67.8 µM
- Modal MIC [16, 19]: > 128 µg/mL
- Modal MIC ([16]; shown in µM): > 67.8 µM
- Modal MIC ([17]; shown in µM): 67.8 µM
- Modal MIC ([18]; shown in µM): 33.9 µM

Structure (SMILES): CC[C@H](C)[C@H](NC(=O)[C@H](C)NC(=O)CNC(=O)[C@H](C)NC(=O)[C@H](CCCCN)NC(=O)[C@H](CO)NC(=O)[C@H](C)NC(=O)[C@H](CCSC)NC(=O)CN)C(=O)N[C@@H](C)C(=O)NCC(=O)N[C@@H](CCCCN)C(=O)N[C@H](C(=O)N[C@@H](C)C(=O)N[C@@H](CCCCN)C(=O)N[C@H](C(=O)N[C@@H](C)C(=O)N[C@@H](CC(C)C)C(=O)N[C@@H](CCCCN)C(=O)N[C@@H](C)C(=O)N[C@@H](CC(C)C)C(N)=O)C(C)C)[C@@H](C)CC [DRAMP02272a] (H-GMASKAGAIAGKIAKVALKAL-NH2)
- Modal MIC [1]: 2 µM
- Modal MIC [2]: 1 µM
- Modal MIC [3]: 2 µM
- Modal MIC [4]: 4 µM
- Modal MIC ([5]; shown in µM): 32 µM
- Modal MIC ([6]; shown in µM): 16 µM
- Modal MIC50 ([7]; shown in µM): 64 µM
- Modal MIC90 ([7]; shown in µM): 64 µM
- Modal MIC50 ([8]; shown in µM): 16 µM
- Modal MIC90 ([8]; shown in µM): 16 µM
- Modal MIC50 [9, 20]: > 128 µg/mL
- Modal MIC90 [9, 21]: > 128 µg/mL
- Modal MIC50 ([9]; shown in µM): > 64 µM
- Modal MIC90 ([9]; shown in µM): > 64 µM
- Modal MIC50 [10, 20]: > 128 µg/mL
- Modal MIC90 [10, 21]: > 128 µg/mL
- Modal MIC50 ([10]; shown in µM): > 64 µM
- Modal MIC90 ([10]; shown in µM): > 64 µM
- Modal MIC50 [11, 20]: > 128 µg/mL
- Modal MIC90 [11, 21]: > 128 µg/mL
- Modal MIC50 ([11]; shown in µM): > 64 µM
- Modal MIC90 ([11]; shown in µM): > 64 µM
- Modal MIC50 [12, 22]: > 128 µg/mL
- Modal MIC90 [12, 23]: > 128 µg/mL
- Modal MIC50 ([12]; shown in µM): > 64 µM
- Modal MIC90 ([12]; shown in µM): > 64 µM
- Modal MIC [13]: 4 µM
- Modal MIC ([14]; shown in µM): 32 µM
- Modal MIC ([15]; shown in µM): 16 µM
- Modal MIC ([16]; shown in µM): 8 µM
- Modal MIC [17, 19]: > 128 µg/mL
- Modal MIC ([17]; shown in µM): > 64 µM
- Modal MIC [18, 19]: > 128 µg/mL
- Modal MIC ([18]; shown in µM): > 64 µM
